In patent publication US20240166626A1, “Compounds and Methods for Preventing, Treating, or Ameliorating Airway Disease” (THOMAS JEFFERSON UNIVERSITY, priority 2021, published 2024):

Test system: HASM cells
Experiment: Human airway smooth muscle cell scratch (migration) assay
Type: cell-based
Details: 1 μM DFPQ, PDGF, 24 hours, FIG. 4F
Experimental: FIGS. 4A-4F: DFPQ inhibits internalization of the β2AR and protects from agonist induced desensitization in cell and tissue models. FIG. 4A: Effect of DFPQ on agonist-promoted internalization of the β2AR. HEK 293 cells stably expressing FLAG-β2AR were pre-incubated with 0.1% DMSO or 10 μM DFPQ for 30 min and then stimulated with the indicated concentrations of ISO for up to 60 min. Cells were fixed and receptor surface expression was measured by ELISA. […] Cells were lysed and cAMP production was measured by ELISA. […] FIG. 4C: Mouse airway tissue were contracted with 1 μM methacholine for 5 min and then incubated overnight with 1 μM ISO±1 μM DFPQ. Airway slices were washed, re-contracted with methacholine, and incubated with ISO for 1 hour (n=4 bronchioles). Airway contractility was measured by luminal area of bronchioles by microscopy at various times. FIG. 4D: Bar graphs represent normalized ISO-promoted relaxation from methacholine contraction on day 2 of treatment at the 25 min timepoint from 4 tracheal rings. *, p<0.05 FIG. 4E: HASM cells were scratched and incubated overnight in PDGF containing serum free media. Cells were imaged to evaluate migration into the scratched area. FIG. 4F: Densitometric analysis of migration into scratched area (n=3 experiments). ***, p<0.001; **, p<0.01
Cell culture GLOSENSOR™ cells (Promega) were maintained in Dulbecco's modified Eagle's medium (DMEM) containing 10% fetal bovine serum (FBS) and 200 μg/ml Hygromycin B. […]® ADRB2 cells (DiscoveRx) were maintained with the AssayComplete™ Cell Culture kit (DiscoveRx catalog #92-3107G). […] Cells were read every three minutes for 18 minutes on a PolarStar Optima plate reader (BMG) to establish peak signal. ISO was added to each well to a final concentration of 1 μM, and luminescence was determined in kinetic mode at room temperature (23-25° C.). Response was analyzed relative to forskolin (7 μM) and alprenolol (1 μM) as positive and negative controls, respectively. […] Luminescence was determined at room temperature (23-25° C.) on a PolarStar Optima plate reader (BMG). […]

## Fc1ccc(Nc2nc(NC3CCCCC3)c3ccccc3n2)cc1F [DFPQ, N^4-cyclohexyl-N^2-(3,4-difluorophenyl)quinazoline-2,4-diamine]
  effect on β-agonist (SAL or ISO) reduction of HASM migration: significantly enhanced
